In patent US9085608B2, “Treatment of biofilms” (LYTIX BIOPHARMA AS, priority 2008, dated 2015):
≈ marks a conversion by molar mass, not a printed value. Residues, ends and D or L forms follow the SMILES beside them. *: point of attachment. NHPhenethyl = c1ccc(CCN*)cc1

Key:
[1] = test system: 51-03 S. haemolyticus biofilm; assay: MBIC, biofilm survival rate by Alamar blue, Example 3; type: cell-based; conditions: 24 h
Method: (§1) Biofilm formation was induced in 96-well flat bottom microtitre plates (Nunclon Surface, NUNC). First, overnight cultures were diluted 1:100 in MHIIB (S. epidermidis and S. haemolyticus) or tryptic soy broth (TSB) with 5% glucose and 5% NaCl (S. aureus). […] of this bacterial suspension (10^7 cfu/ml) was added to each well and incubated for 24 h at 37° C. After 24 h the wells were carefully washed twice with phosphate-buffered saline (PBS) to remove planktonic bacteria. The washing procedure was carefully evaluated by measuring metabolic activity of the PBS with the Alamar blue method, described in detail below.
(§2) The washed biofilms were subjected to treatment with the Compounds at different concentrations.
(§3) Trifluoroacetate salts of the compounds were dissolved in sterile water and diluted to 5 mg/L, 50 mg/L and 500 mg/L in MHIIB. […] of the Compounds, in different concentrations, were added to each well and incubated for 24 h at 37° C. Positive controls were untreated biofilms only added 200 MHIIB. Negative controls were only 200 μl MHIIB, with no bacteria added.
(§4) The metabolic activity of the biofilm was quantified with a slightly modified method previously described by Pettit et al. Antimicrob. Agents Chemother. 2005; 49: 2612-7. Briefly, after the 24 h incubation with antimicrobial agents the wells were again washed twice with PBS and then added […] MHIIB with 5% Alamar blue (AB; Biosource, Camarillo, Calif., USA). AB is a redox indicator which both fluoresces and changes colour in response to chemical reduction. The extent of reduction is a reflection of bacterial cell viability. After 1 h incubation at 37° C., absorbance was recorded at 570 and 600 nm using Versamax tuneable microplate reader (Molecular Devices, Sunnyvale, Calif., USA). All assays were performed 3 times with 8 parallels. The highest and lowest value of each run was excluded from the analyses, and the remaining 18 values were averaged.

[2] = test system: 8-16 S. epidermidis biofilm; assay: as above; type: cell-based; conditions: 24 h
Method: as §1, §2, §3, §4

[3] = test system: 42-77 S. epidermidis biofilm; assay: as above; type: cell-based; conditions: 24 h
Method: as §1, §2, §3, §4

[4] = test system: 51-07 S. haemolyticus biofilm; assay: as above; type: cell-based; conditions: 24 h
Method: as §1, §2, §3, §4

PIA 90 S. aureus biofilm = assay: as above; type: cell-based; conditions: 24 h
Method: as §1, §2, §3, §4

PIA 9 S. aureus biofilm = assay: as above; type: cell-based; conditions: 24 h
Method: as §1, §2, §3, §4

51-07 S. haemolyticus = type: cell-based; conditions: planctonic
Source text: (§5) Minimum Inhibitory Concentration (MIC) on Planctonic Bacteria

8-16 S. epidermidis = type: cell-based; conditions: planctonic
Source text: as §5

PIA 9 S. aureus = type: cell-based; conditions: planctonic
Source text: as §5

42-77 S. epidermidis = type: cell-based; conditions: planctonic
Source text: as §5

PIA 90 S. aureus = type: cell-based; conditions: planctonic
Source text: as §5

51-03 S. haemolyticus = type: cell-based; conditions: planctonic
Source text: as §5

[5] = test system: six staphylococcal strains (2 S. epidermidis, 2 S. haemolyticus and 2 S. aureus); assay: Susceptibility testing under planktonic growth condition, EUCAST breakpoints; type: cell-based; conditions: EUCAST criteria
Method: The six staphylococcal strains (2 S. epidermidis, 2 S. haemolyticus and 2 S. aureus) used in this study were selected based on their previously known biofilm forming capacity (Table 1).
(§6) Bacteria were grown overnight at 37° C. in cation adjusted Mueller-Hinton II Broth (MHIIB).
We determined the MICs of oxacillin, gentamicin, tetracycline, vancomycin and linezolid using E-test (AB Biodisk, Solna, Sweden) and MICs of rifampicin using broth microdilution assay. Breakpoints were interpreted according to EUCAST criteria. We selected 3 different SAMPs (Compounds A, B and C; Lytix Biopharma, Tromsø, Norway—see FIG. 1) based on previously known antimicrobial activities, and determined their exact MICs with broth microdilution assay. All 3 SAMPs are tripeptides with two arginine residues providing their cationic moieties (FIG. 1). The lipophilic bulk is provided by a modified tryptophane derivate. The difference between the compounds is the size of the C-terminal modification; Compound A has the smallest and Compound B has the largest C-terminal modification (FIG. 1). The molecular weights of the SAMPs are in the range of 700-800 Dalton.

[6] = test system: Staphylococcus epidermidis TUH 08-16; assay: microbe, parasite or virus in culture
Method: as §6
(§7) We determined the MICs of oxacillin, gentamicin, tetracycline, vancomycin and linezolid using E-test (AB Biodisk, Solna, Sweden) and MICs of rifampicin using broth microdilution assay. Breakpoints were interpreted according to EUCAST criteria. […] All 3 SAMPs are tripeptides with two arginine residues providing their cationic moieties (FIG. 1). The lipophilic bulk is provided by a modified tryptophane derivate. […] The molecular weights of the SAMPs are in the range of 700-800 Dalton.

[7] = test system: Staphylococcus aureus PIA 9; assay: microbe, parasite or virus in culture
Method: as §6, §7

[8] = test system: Staphylococcus epidermidis RP62A ATCC 35984; assay: microbe, parasite or virus in culture
Method: as §6, §7

[9] = test system: Staphylococcus haemolyticus TUH 51-07; assay: microbe, parasite or virus in culture
Method: as §6, §7

[10] = test system: Staphylococcus haemolyticus TUH 51-03; assay: microbe, parasite or virus in culture
Method: as §6, §7

[11] = test system: Staphylococcus aureus PIA90; assay: microbe, parasite or virus in culture
Method: as §6, §7

[12] = the four other staphylococcal strains
[13] = planktonic, SE RP62A ATCC 35984

## N=C(N)NCCC[C@H](NC(=O)[C@H](Cc1c[nH]c2ccccc12)NC(=O)[C@H](Cc1c[nH]c2ccccc12)NC(=O)[C@@H](N)CCCNC(=N)N)C(=O)NCCc1ccccc1 [ME 171 B, R-W-W-R-NH-CH2CH2Ph] (H-RWWR-NHPhenethyl)
[1]; 5 μg/ml
  MBIC measured as survival rate: 100%
[1]; 50 μg/ml
  MBIC measured as survival rate: 8%
[1]; 500 μg/ml
  MBIC measured as survival rate: 9%
[2]; 5 μg/ml
  MBIC measured as survival rate: 100%
[2]; 50 μg/ml
  MBIC measured as survival rate: 70%
[2]; 500 μg/ml
  MBIC measured as survival rate: 4%
[3]; 5 μg/ml
  MBIC measured as survival rate: 100%
[3]; 50 μg/ml
  MBIC measured as survival rate: 90%
[3]; 500 μg/ml
  MBIC measured as survival rate: 10%
[4]; 5 μg/ml
  MBIC measured as survival rate: 100%
[4]; 50 μg/ml
  MBIC measured as survival rate: 60%
[4]; 500 μg/ml
  MBIC measured as survival rate: 12%
PIA 90 S. aureus biofilm; 5 μg/ml
  MBIC measured as survival rate: 100%
PIA 90 S. aureus biofilm; 50 μg/ml
  MBIC measured as survival rate: 80%
PIA 90 S. aureus biofilm; 500 μg/ml
  MBIC measured as survival rate: 5%
PIA 9 S. aureus biofilm; 5 μg/ml
  MBIC measured as survival rate: 100%
PIA 9 S. aureus biofilm; 50 μg/ml
  MBIC measured as survival rate: 100%
PIA 9 S. aureus biofilm; 500 μg/ml
  MBIC measured as survival rate: 90%
51-07 S. haemolyticus
  MIC: 32 µg/mL (≈ 39.7 µM)
8-16 S. epidermidis
  MIC: 64 µg/mL (≈ 79.4 µM)
PIA 9 S. aureus
  MIC: 128 µg/mL (≈ 159 µM)
42-77 S. epidermidis
  MIC: 64 µg/mL (≈ 79.4 µM)
PIA 90 S. aureus
  MIC: 128 µg/mL (≈ 159 µM)
51-03 S. haemolyticus
  MIC: 32 µg/mL (≈ 39.7 µM)

## Cc1onc(-c2ccccc2)c1C(=O)N[C@@H]1C(=O)N2[C@@H]1SC(C)(C)[C@@H]2C(=O)O [OXA, oxacillin]
[5]; [12]
  susceptibility under planktonic growth: resistant
[5]; the two S. aureus strains
  susceptibility under planktonic growth: susceptible
[6]; planktonic, SE TUH 08-16
  MIC: 16 µg/mL (≈ 39.9 µM)
[7]; planktonic, SA PIA 9
  MIC: 1 µg/mL (≈ 2.49 µM)
[8]; [13]
  MIC: 8 µg/mL (≈ 19.9 µM)
[9]; planktonic, SH TUH 51-07
  MIC: >256 µg/mL
[10]; planktonic, SH TUH 51-03
  MIC: >256 µg/mL
[11]; planktonic, SA PIA90
  MIC: 1 µg/mL (≈ 2.49 µM)

## CO[C@H]1/C=C/O[C@@]2(C)Oc3c(C)c(O)c4c(O)c(c(/C=N/N5CCN(C)CC5)c(O)c4c3C2=O)NC(=O)/C(C)=C\C=C\[C@H](C)[C@H](O)[C@@H](C)[C@@H](O)[C@@H](C)[C@H](OC(C)=O)[C@@H]1C [RIF, rifampicin]
[6]; Staphylococcus epidermidis, TUH0816
  MIC: 0.016 µg/mL (≈ 0.0194 µM)
[7]; Staphylococcus aureus, PIA9
  MIC: < 0.016 µg/mL
[8]; Staphylococcus epidermidis, ATCC35984
  MIC: < 0.016 µg/mL
[9]; Staphylococcus haemolyticus, TUH5107
  MIC: 0.016 µg/mL (≈ 0.0194 µM)
[10]; Staphylococcus haemolyticus, TUH5103
  MIC: < 0.016 µg/mL
[11]; Staphylococcus aureus, PIA90
  MIC: 0.016 µg/mL (≈ 0.0194 µM)

## gentamicin
[5]; [12]
  susceptibility under planktonic growth: resistant
[5]; the two S. aureus strains
  susceptibility under planktonic growth: susceptible
[6]; planktonic, SE TUH 08-16
  MIC: 256 µg/mL
[7]; planktonic, SA PIA 9
  MIC: 1 µg/mL
[8]; [13]
  MIC: 8 µg/mL
[9]; planktonic, SH TUH 51-07
  MIC: 64 µg/mL
[10]; planktonic, SH TUH 51-03
  MIC: 64 µg/mL
[11]; planktonic, SA PIA90
  MIC: 0.5 µg/mL
